Structures are written as SMILES.

The target of this assay is tyrosinase from fungi. As to the kind of experiment: Tyrosinase assay (L-DOPA as substrate, optical density at 470 nm). The class given is biochemical. The note with it: tyrosinase from fungi (16U, Fluka), phosphate buffer pH 6.8, 10 min pre-incubation at 25° C., read-out: IC50 (concentration of the test compound at which 50% of the tyrosinase activity is inhibited). How it is done:
The action of the compounds I or Ia as skin lighteners is tested through their ability to inhibit the enzyme tyrosinase and thus to suppress melanin synthesis.
The inhibiting action of the compounds of the formula I or Ia against tyrosinase was assessed using tyrosinase from fungi and L-DOPA as substrate.
The compounds (1) and (2), as obtained in Example 1, and L-dopa are pre-incubated for 10 minutes at 25° C. in phosphate buffer (pH 6.8), and tyrosinase from fungi (16U) (Fluka) is subsequently added. The optical density of the samples is measured at 470 nm against a negative control (without active compound). Kojic acid and 4-hexylresorcinol are also tested as tyrosinase reference, i.e. positive control.
The results are shown in the following table, expressed in the IC50 value (the concentration of the test compound at which 50% of the tyrosinase activity is inhibited).

For the compound `CCCCCCc1ccc(OC(=O)C2CCC(=O)N2)cc1O` (stereo not drawn) [(1), 4-Hexyl-3-hydroxyphenyl 2-pyrrolidinone-5-carboxylate], the IC50 was found to be 19 µM.

In the case of `O=c1cc(CO)occ1O` [Kojic acid], the IC50 amounted to 12 µM.

Take `CCCCCCc1ccc(O)cc1O` [4-Hexylresorcinol]: the IC50 amounted to 0.5 µM.

Source of the values: US20100215594A1, “Tyrosinase Inhibitors” (priority 2007, published 2010).
